Assay: in vitro
Conditions: human, hela cells, % viability

O=C1CC(C(=O)c2ccccc2)NC(N2CCOCC2)=N1 (stereo not shown) [CBK267352]
viability at 28.5 h, 10 µM: 105%

Clc1cc2nc(OCCCc3ccncc3)c(N3CCCC3)nc2cc1Cl [CBK115774]
viability at 28.5 h, 10 µM: 98%

O=C(Nc1ccc2c(c1)OCCO2)c1cnccn1 [CBK220830]
viability at 28.5 h, 10 µM: 92.8%

CN1CCN(C(=O)Cn2cccc(C(=O)Nc3ccc(F)cc3)c2=O)C(c2ccccc2)C1 (stereo not shown) [CBK286045]
viability at 28.5 h, 10 µM: 96.6%

O=C(O)c1ccc(C(=O)O)c2c(-c3ccc(C(=O)O)c4c(C(=O)O)ccc(C(=O)O)c34)ccc(C(=O)O)c12 [CBK261267]
viability at 28.5 h, 10 µM: 98.4%

OCCN1CCN(c2cncc(-c3cccc(OC(F)(F)F)c3)n2)CC1 [CBK065941]
viability at 28.5 h, 10 µM: 108%

COc1ccccc1NC(=O)NC(=O)C1CCN(CCc2cccs2)CC1 [CBK034912]
viability at 28.5 h, 10 µM: 87.5%

Cc1ccc2nc(-c3ccc(NC(=O)CSc4nnc(C)s4)cc3)sc2c1 [CBK266185]
viability at 28.5 h, 10 µM: 92.5%

O=C(CCN1C(=O)c2cccc3cccc(c23)C1=O)Oc1ccc2c(c1)OCO2 [CBK266237]
viability at 28.5 h, 10 µM: 106%

COc1cccc(CN2CCC(Cc3ccccc3)CC2)c1 [CBK126436]
viability at 28.5 h, 10 µM: 103%

Cn1nc(C(C)(C)C)c2cc(C(=O)N3CCn4nccc43)cnc21 [CBK305466]
viability at 28.5 h, 10 µM: 93.3%

CC(O)(CC(=O)O)CC(=O)OCCc1ccc2c(c1)CCC2 (stereo not shown) [CBK017766]
viability at 28.5 h, 10 µM: 95.2%

Clc1ccc(SCCOCCN2CCCCC2)cc1 [CBK265108G]
viability at 28.5 h, 10 µM: 87.3%

Cc1ccc(S(=O)(=O)NCCNc2ccc([N+](=O)[O-])cc2C(F)(F)F)cc1 [CBK265140]
viability at 28.5 h, 10 µM: 90.6%

CC(=O)Nc1ccc(NC(=O)CCCC(=O)O)cc1 [CBK260984]
viability at 28.5 h, 10 µM: 104%

Cc1noc(C)c1CN(C)C(=O)NC1CCCc2c1cnn2CCO (stereo not shown) [CBK306283]
viability at 28.5 h, 10 µM: 92.5%

O=C(CSc1nnc(CN2CCOCC2)n1-c1ccc(Cl)cc1)N1c2ccccc2SC2C=CC=CC21 (stereo not shown) [CBK268820]
viability at 28.5 h, 10 µM: 91.3%

CCOc1ccc(Oc2ccc(C(F)(F)F)cc2NC(=O)CCCC(=O)O)cc1 [CBK296993]
viability at 28.5 h, 10 µM: 90.7%

CC(C)C(=O)N1CC2(CCN(CCc3c[nH]c4ccccc34)CC2)c2ccccc21 [CBK126725]
viability at 28.5 h, 10 µM: 95.6%

CC(C)Nc1nccnc1Sc1ccccc1O [CBK089492]
viability at 28.5 h, 10 µM: 92.1%

CCOC(=O)c1cccnc1-c1ccc(Cl)c(Cl)c1 [CBK149241]
viability at 28.5 h, 10 µM: 92.1%

Cc1cccc(C)c1NC(=O)CSc1nnc(-c2cccnc2)n1Cc1ccccc1 [CBK265620]
viability at 28.5 h, 10 µM: 114%

Cc1cc(C)c2c(O)nc(SCC(=O)c3ccccc3)nc2n1 [CBK264336]
viability at 28.5 h, 10 µM: 100%

COc1cccc(NC(=O)c2cncc(-c3ccc(C(=O)N4CCOCC4)cc3)c2)c1 [CBK160213]
viability at 28.5 h, 10 µM: 96.2%

COc1ccc(-c2nnc(SCC(=O)NN)n2-c2ccccc2)cc1 [CBK263157]
viability at 28.5 h, 10 µM: 87.3%

O=C(NCc1ccccn1)C1CCC(Cn2c(=S)[nH]c3ccccc3c2=O)CC1 (stereo not shown) [CBK266645]
viability at 28.5 h, 10 µM: 95.6%

CC(=O)NCCNc1ccc(C(=O)O)cc1[N+](=O)[O-] [CBK264184]
viability at 28.5 h, 10 µM: 87.8%

Cc1ccc(CCC(=O)N2CCNCC2C)c(C)c1 (stereo not shown) [CBK304481]
viability at 28.5 h, 10 µM: 90%

COC(=O)C(CCSC)NC(=O)c1cccs1 (stereo not shown) [CBK057972]
viability at 28.5 h, 10 µM: 94%

CN1CCC(CNC(=O)C2(c3ccccc3F)CC2)(N(C)C)CC1 [CBK282604]
viability at 28.5 h, 10 µM: 91.6%

CCOC(=O)C1(c2ccccc2)CCN(C(=O)CCC(=O)O)CC1 [CBK132197]
viability at 28.5 h, 10 µM (bulk resorufin, single well): 94.7%

O=C(NCc1cccnc1)c1csc2c1CCCC2 [CBK305029]
viability at 28.5 h, 10 µM: 86.4%

O=C(CSc1nnc(-c2ccccc2Br)o1)c1ccc(F)cc1 [CBK068688]
viability at 28.5 h, 10 µM: 92.2%

CCC1c2cccn2CCN1Cc1cncn1CC (stereo not shown) [CBK283012]
viability at 28.5 h, 10 µM: 85.8%

CC(C)Nc1cncc(OCC2CN(C)CCN2C)n1 (stereo not shown) [CBK115602]
viability at 28.5 h, 10 µM: 87.7%

Cc1ccc(CCC(=O)N2CCCC2c2nc3ccccc3[nH]2)o1 (stereo not shown) [CBK284012]
viability at 28.5 h, 10 µM: 93.3%

Cc1ccc2c(c1)nc1n2CCC1O (stereo not shown) [CBK113622]
viability at 28.5 h, 10 µM: 88.1%

Cc1ccc2ncnc(NC(CC(C)C)C(=O)O)c2c1 (stereo not shown) [CBK275388]
viability at 28.5 h, 10 µM: 109%

O=C(NC(C(=O)N/N=C/c1ccccc1O)c1n[nH]c(=O)c2ccccc12)c1ccccc1 (stereo not shown) [CBK261117]
viability at 28.5 h, 10 µM: 113%

Cc1cccc(CC(=O)N2CCCC2c2n[nH]cc2-c2ccncc2)c1 (stereo not shown) [CBK283447]
viability at 28.5 h, 10 µM: 90.7%

O=c1c2ccccc2n2c(=O)[nH]nc2n1-c1ccccc1 [CBK288352]
viability at 28.5 h, 10 µM: 104%

O=C(c1ccncc1)N1CCCC1(CO)Cc1ccccc1 (stereo not shown) [CBK288620]
viability at 28.5 h, 10 µM: 96.5%

Cc1cc2c(cc1Br)NC(=O)/C2=N\O [CBK288453]
viability at 28.5 h, 10 µM: 56%

CCNC(=O)c1ccc(-n2cccn2)c(C#Cc2ccccn2)c1 [CBK283125]
viability at 28.5 h, 10 µM: 111%

Cc1cc(C)cc(N(CC(=O)Nc2ccccc2-c2ccccc2)S(=O)(=O)c2ccccc2)c1 [CBK265933]
viability at 28.5 h, 10 µM: 92.4%

CN(CCN1CCCCC1)C(=O)Cn1ccnc1-c1ccccc1 [CBK281900]
viability at 28.5 h, 10 µM: 91.3%

Cc1cc(C)n(C)c(=O)c1C(=O)NCCCc1ccc(Cl)cc1 [CBK281566]
viability at 28.5 h, 10 µM: 88.2%

Cc1ccc(C(=O)NCCNC(=O)CN2CCCC2)cc1 [CBK264103]
viability at 28.5 h, 10 µM: 92.5%

COc1ccc(C2C(C(=O)O)c3ccccc3C(=O)N2C)cc1 (stereo not shown) [CBK286847]
viability at 28.5 h, 10 µM: 85.8%

CCc1nn(CC(=O)NC2CC2)c(=O)c2cc3sc(C)cc3n12 [CBK284099]
viability at 28.5 h, 10 µM: 91.9%

O=[N+]([O-])c1ccc(CSc2nnc(-c3cccnc3)n2Cc2ccco2)cc1 [CBK264580]
viability at 28.5 h, 10 µM: 106%

Cc1ccc(CN2C(=O)CC(Sc3ncccc3C(=O)O)C2=O)cc1 (stereo not shown) [CBK270006]
viability at 28.5 h, 10 µM: 91.2%

Cc1cc(C)n(CCC(=O)N2CCCCC2C(=O)O)n1 (stereo not shown) [CBK304678]
viability at 28.5 h, 10 µM: 103%

CC(NC(=O)N(Cc1ccc(CN)cc1)Cc1cnc(-c2ccccc2)[nH]1)c1cccc2ccccc12 (stereo not shown) [CBK046149C]
viability at 28.5 h, 10 µM: 97.1%

CC(=O)Nc1nc2c3ccccc3n(C(C)=O)c2s1 [CBK011360]
viability at 28.5 h, 10 µM: 110%

O=C1NCCN1CCOc1nccnc1/C=C/c1ccccc1 [CBK106879]
viability at 28.5 h, 10 µM: 96%

COc1ccc(OCCNC(=O)c2cc(Br)cnc2N2CCOCC2)cc1 [CBK076214]
viability at 28.5 h, 10 µM: 88%

C[N+](C)(C)CCCCOC(c1ccccc1)c1ccccc1 [CBK261076I]
viability at 28.5 h, 10 µM: 94.1%

Cc1nnc(SCCN2CCOC2=O)n1CCc1cccs1 [CBK304029]
viability at 28.5 h, 10 µM: 93.7%

O=C(O)C1CCN(S(=O)(=O)c2ccccc2[N+](=O)[O-])CC1 [CBK265267]
viability at 28.5 h, 10 µM: 98.6%

CCn1ncc2c1CCCC2NC1CCCN(c2cnn(C)c2)C1=O (stereo not shown) [CBK305316]
viability at 28.5 h, 10 µM: 88.7%

COc1ccc(OC)c(NC(=S)NCCN2CCOCC2)c1 [CBK264927]
viability at 28.5 h, 10 µM: 96.9%

Cc1c(C(=O)N(C)Cc2nc3ccccc3s2)nnn1C1CCNCC1 [CBK306501C]
viability at 28.5 h, 10 µM: 85.9%

CCCCNC(=O)c1c(N)n(-c2ccc(C(=O)O)cc2)c2nc3ccccc3nc12 [CBK300500]
viability at 28.5 h, 10 µM: 82.7%

Cc1ccc(OCC(=O)N2CCCCC2c2nccs2)cc1 (stereo not shown) [CBK305091]
viability at 28.5 h, 10 µM: 88.7%

OCCN1CCN(c2ccc(/C=C/c3ccccc3)cn2)CC1 [CBK036849]
viability at 28.5 h, 10 µM: 89.2%

COCC1CCN(c2c(F)cc(C#N)cc2F)CC1 [CBK306244]
viability at 28.5 h, 10 µM: 104%

COc1cccc(/C=N\NC(=O)CN2CCN(Cc3ccccc3)CC2)c1O [CBK263106]
viability at 28.5 h, 10 µM: 97.1%

O=C(C1CC1)N1CCC[C@H]1Cn1nc(-c2ccc(F)cc2)ccc1=O [CBK284252]
viability at 28.5 h, 10 µM: 79.8%

Cc1cc(Cc2ccccc2F)cc(C2CCN(C(=O)c3nc4ccc(F)cc4[nH]3)CC2)n1 [CBK285932]
viability at 28.5 h, 10 µM: 120%

COc1cc(Nc2nc(-c3ccco3)cn3ccnc23)cc(OC)c1OC [CBK037413]
viability at 28.5 h, 10 µM: 95.2%

CN(Cc1ccc2ncccc2c1)C(=O)C1CN(S(=O)(=O)c2ccc(F)cc2)C1 [CBK285943]
viability at 28.5 h, 10 µM: 92.5%

CN1CCN(C)C(COc2cccc(C(F)(F)F)n2)C1 (stereo not shown) [CBK113292]
viability at 28.5 h, 10 µM: 106%

Cn1nc(-c2ccc(F)cc2)n(-c2ccncc2)c1=O [CBK282294]
viability at 28.5 h, 10 µM: 96.5%

O=C(NC1CCCOC1)c1cc(-c2ccc(F)cc2)no1 (stereo not shown) [CBK283141]
viability at 28.5 h, 10 µM: 107%

CS(=O)(=O)c1nnn(CC#N)n1 [CBK026075]
viability at 28.5 h, 10 µM: 90%

CN(C)S(=O)(=O)N(CC(=O)NCc1ccco1)c1ccccc1 [CBK267971]
viability at 28.5 h, 10 µM: 97.3%

CS(=O)(=O)NC1CCN(C2CCc3c(F)cc(F)cc32)C1 (stereo not shown) [CBK305101]
viability at 28.5 h, 10 µM: 90.1%

O=C(Nc1nc(OCCN2CCCC2=O)cnc1/C=C\c1ccccc1)c1cc2ccccc2s1 [CBK145380]
viability at 28.5 h, 10 µM: 115%

COc1cc(OC)cc(-c2[nH][nH]c(=O)c2CCN)c1 [CBK288414]
viability at 28.5 h, 10 µM: 110%

C[C@@H]1CN(C(=O)c2ccc3[nH]cnc3c2)C[C@H](C)O1 [CBK200120]
viability at 28.5 h, 10 µM: 106%

CC(=O)N(C)c1nc(-c2cccc(N(C)C)c2)ccc1C(=O)N(C)C [CBK076555]
viability at 28.5 h, 10 µM: 92.3%

O=C(CCc1ccccc1)N1CCC(c2n[nH]c3ncccc23)CC1 [CBK284906]
viability at 28.5 h, 10 µM: 94.3%

O=C(CC1CC1)NC(c1ccccc1)c1ccccn1 (stereo not shown) [CBK144108]
viability at 28.5 h, 10 µM: 103%

COc1ncc(-c2nc(NC(=O)Cc3cc(F)c(F)c(F)c3)cnc2-c2cccc(C)c2)c(OC)n1 [CBK036717]
viability at 28.5 h, 10 µM: 96.4%

O=S(=O)(Nc1cccc2[nH]ccc12)c1ccc(Br)cc1F [CBK153547]
viability at 28.5 h, 10 µM: 80.6%

O=C1NC(=O)C(=NNc2ccc(S(=O)(=O)O)cc2)C(=O)N1 [CBK261439]
viability at 28.5 h, 10 µM (bulk resorufin, single well): 88.7%

Cc1csc2nc(-c3ccccc3)cn12 [CBK098072]
viability at 28.5 h, 10 µM: 108%

O=[N+]([O-])c1ccc(OCCCNCCO)cc1 [CBK262244]
viability at 28.5 h, 10 µM: 92.3%

CCCn1c(SCC(=O)NCc2ccc(OC)cc2)n[nH]c1=O [CBK297549]
viability at 28.5 h, 10 µM: 90.2%

O=C(CSC1=NC(=O)C(c2ccccc2)C(=O)N1)NC1CCCCC1 (stereo not shown) [CBK263804]
viability at 28.5 h, 10 µM: 103%
